From patent US20260053861A1, “CELL COMPOSITIONS AND METHODS OF USING THE SAME” (THE REGENTS OF THE UNIVERSITY OF CALIFORNIA, priority 2022, published 2026)
Where a name gives a salt, the structure may show the parent alone.

Test system: hPSC-SCs
Conditions: not given

Going from CNCCC(Oc1ccccc1OC)c1ccccc1 (centres unmarked) [Nisoxetine hydrochloride] to CCN(CC)CCOC(=O)C1(c2ccc([N+](=O)[O-])cc2)CCCC1.Cl [Nitrocaramiphen hydrochloride], the z.score.t rises from 0.4318 to 1.242.

First: Cl.Cl.c1ccc2c3c([nH]c2c1)C1C2CCC(C4CCCNC42)N1CC3 (centres unmarked) [Nitrarine dihydrochloride]
Second: C[C@@H]1[C@H](O)[C@@H](C)/C=C/C=C/CC/C=C/C=C/C=C/C=C/C(O[C@H]2O[C@H](C)[C@@H](O)[C@H](N)[C@@H]2O)CC2O[C@](O)(CC(O)C(O)CCC(O)CC(O)CC(O)CC(=O)O[C@H]1C)CC(O)C2C(=O)O (some centres unmarked) [Nystatine]
The z.score.t of the first is lower: 0.3022 for the first, 1.992 for the second.

Same assay, conditions: HTS viability of hPSC-SCs in the presence of 30 mM glucose; Prestwick library; Table S4

First: O=C(Nc1ccc([N+](=O)[O-])cc1Cl)c1cc(Cl)ccc1O [Niclosamide]
Second: CS(=O)(=O)Nc1ccc([N+](=O)[O-])cc1Oc1ccccc1 [Nimesulide]
The z.score.t of the first is lower: −1.794 for the first, 2.111 for the second.

Going from O=C(NCCO[N+](=O)[O-])c1cccnc1 [Nicorandil] to Cc1c(NC(=O)c2cccnc2)c(=O)n(-c2ccccc2)n1C [Nifenazone], the z.score.t falls from 0.599 to −0.2425.

Compared with O=C(O)c1cccnc1Nc1cccc(C(F)(F)F)c1 [Niflumic acid], COc1ccc(C(=O)c2ccccc2)c(O)c1 [Oxybenzone] is lower in z.score.t: 0.5856 for the first, −0.6594 for the second.

First: O=C(N/N=C/c1ccc([N+](=O)[O-])o1)c1ccc(O)cc1 [Nifuroxazide]
Second: NC(=O)N/N=C/c1ccc([N+](=O)[O-])o1 [Nitrofural]
The z.score.t of the first is higher: 0.8023 for the first, 0.767 for the second.

Going from CC1CS(=O)(=O)CCN1/N=C/c1ccc([N+](=O)[O-])o1 (centres unmarked) [Nifurtimox] to O=C1CN(/N=C/c2ccc([N+](=O)[O-])o2)C(=O)N1 [Nitrofurantoin], the z.score.t falls from 1.522 to −0.03449.

Compared with CC1(C)NC(=O)N(c2ccc([N+](=O)[O-])c(C(F)(F)F)c2)C1=O [Nilutamide], CCOC(=O)C1=C(C)NC(C)=C(C(=O)OC)C1c1cccc([N+](=O)[O-])c1 (centres unmarked) [Nitrendipine] is higher in z.score.t: 0.1244 for the first, 0.6177 for the second.

Going from COCCOC(=O)C1=C(C)NC(C)=C(C(=O)OC(C)C)C1c1cccc([N+](=O)[O-])c1 (centres unmarked) [Nimodipine] to COC(=O)C1=C(C)NC(C)=C(C(=O)OCC(C)C)C1c1ccccc1[N+](=O)[O-] (centres unmarked) [Nisoldipine], the z.score.t rises from −1.245 to −0.5992.

Compared with O=C1NCCN1c1ncc([N+](=O)[O-])s1 [Niridazole], Cc1ncc([N+](=O)[O-])n1CC(O)CCl (centres unmarked) [Ornidazole] is lower in z.score.t: 2.422 for the first, 0.1446 for the second.

First: CNC(=C[N+](=O)[O-])NCCSCc1csc(CN(C)C)n1 [Nizatidine]
Second: CC(C)(CO)[C@@H](O)C(=O)NCCCO [Panthenol (D)]
The z.score.t of the first is lower: −0.0788 for the first, 0.6517 for the second.

First: COC(=O)Nc1nc2ccc(C(=O)c3cccs3)cc2[nH]1 [Nocodazole]
Second: O=C(O)CCc1nc(-c2ccccc2)c(-c2ccccc2)o1 [Oxaprozin]
The z.score.t of the first is lower: −1.329 for the first, 0.0827 for the second.

First: CC(=O)O[C@]1(C(C)=O)CC[C@H]2[C@@H]3C=C(C)C4=CC(=O)CC[C@@H]4[C@H]3CC[C@@]21C [Nomegestrol acetate]
Second: C#C[C@]1(O)CC[C@H]2[C@@H]3CCC4=CC(=O)CC[C@@H]4[C@H]3CC[C@@]21C [Norethindrone]
The z.score.t of the first is higher: 0.7296 for the first, 0.2479 for the second.

Compared with CN1Cc2c(N)cccc2C(c2ccccc2)C1 (centres unmarked) [Nomifensine maleate], CNCCC=C1c2ccccc2CCc2ccccc21 [Nortriptyline hydrochloride] is lower in z.score.t: −0.004573 for the first, −1.753 for the second.

Going from CNCCC=C1c2ccccc2C=Cc2ccccc21 [Norcyclobenzaprine] to Cc1ccccc1C(OCCN(C)C)c1ccccc1 (centres unmarked) [Orphenadrine hydrochloride], the z.score.t falls from 0.465 to −1.003.

Going from C#C[C@]1(O)CC[C@H]2[C@@H]3CCC4=C(CCC(=O)C4)[C@H]3CC[C@@]21C [Norethynodrel] to C#C[C@]1(O)CC[C@H]2[C@@H]3CCC4=CC(=O)CC[C@@H]4[C@H]3CC[C@@]21CC [Norgestrel-(−)-D], the z.score.t falls from 1.857 to 0.0116.

First: CCn1cc(C(=O)O)c(=O)c2cc(F)c(N3CCNCC3)cc21 [Norfloxacin]
Second: CCn1cc(C(=O)O)c(=O)c2cc3c(cc21)OCO3 [Oxolinic acid]
The z.score.t of the first is lower: 0.3922 for the first, 1.315 for the second.

First: COc1ccc2c(c1OC)C(=O)O[C@@H]2[C@H]1c2c(cc3c(c2OC)OCO3)CCN1C [Noscapine]
Second: COc1cc2c(cc1OC)-c1cc3ccc(OC)c(OC)c3c[n+]1CC2 [Palmatine chloride]
The z.score.t of the first is lower: −0.3731 for the first, 0.5822 for the second.

Going from CO[C@@H]1[C@@H](OC(N)=O)[C@@H](O)[C@H](Oc2ccc3c(O)c(NC(=O)c4ccc(O)c(CC=C(C)C)c4)c(=O)oc3c2C)OC1(C)C [Novobiocin sodium salt] to CN(C)[C@@H]1C(O)=C(C(N)=O)C(=O)[C@@]2(O)C(O)=C3C(=O)c4c(O)cccc4[C@@](C)(O)[C@H]3[C@H](O)[C@@H]12 [Oxytetracycline dihydrate], the z.score.t falls from 1.481 to −0.09426.

Compared with CC1COc2c(N3CCN(C)CC3)c(F)cc3c(=O)c(C(=O)O)cn1c23 (centres unmarked) [Ofloxacin], Cc1nccn1CC1CCc2c(c3ccccc3n2C)C1=O (centres unmarked) [Ondansetron Hydrochloride] is higher in z.score.t: −1.243 for the first, −0.3173 for the second.

Going from CO[C@H]1C[C@H](O[C@H]2[C@H](C)[C@@H](O[C@@H]3O[C@H](C)C[C@H](N(C)C)[C@H]3O)[C@@H](C)C[C@@]3(CO3)C(=O)[C@H](C)[C@@H](O)[C@@H](C)[C@@H](C)OC(=O)[C@@H]2C)O[C@@H](C)[C@@H]1O [Oleandomycin phosphate] to CC(=O)O[C@H]1C[C@@H]2CC[C@@H]3[C@H](CC[C@@]4(C)[C@H]3C[C@H]([N+]3(C)CCCCC3)[C@@H]4OC(C)=O)[C@@]2(C)C[C@@H]1[N+]1(C)CCCCC1 [Pancuronium bromide], the z.score.t rises from −0.5417 to 0.1543.

Going from COc1ccc2[nH]c([S+]([O-])Cc3ncc(C)c(OC)c3C)nc2c1 (centres unmarked) [Omeprazole] to Cc1cc(C(C)(C)C)c(O)c(C)c1CC1=NCCN1 [Oxymetazoline hydrochloride], the z.score.t falls from 0.1344 to −0.7524.

First: CCN(CC)CCc1nc(-c2ccccc2)no1.O=C(O)CC(O)(CC(=O)O)C(=O)O [Oxalamine citrate salt]
Second: CCN(CC)CC#CCOC(=O)C(O)(c1ccccc1)C1CCCCC1 (centres unmarked) [Oxybutynin chloride]
The z.score.t of the first is higher: −0.3023 for the first, −0.7013 for the second.

First: CN1CCCN=C1/C=C/c1cccc(O)c1.O=C(O)c1cc2ccccc2c(Cc2c(O)c(C(=O)O)cc3ccccc23)c1O [Oxantel pamoate]
Second: CC(=O)O[C@H]1C(=O)[C@@]2(C)[C@H]([C@H](OC(=O)c3ccccc3)[C@]3(O)C[C@H](OC(=O)[C@H](O)[C@@H](NC(=O)c4ccccc4)c4ccccc4)C(C)=C1C3(C)C)[C@]1(OC(C)=O)CO[C@@H]1C[C@@H]2O [Paclitaxel]
The z.score.t of the first is higher: −0.3936 for the first, −1.418 for the second.

First: CN(C(=O)CN(CCO)CC(=O)N(C)C(C)(C)Cc1ccccc1)C(C)(C)Cc1ccccc1 [Oxethazaine]
Second: CCCCC1C(=O)N(c2ccccc2)N(c2ccc(O)cc2)C1=O (centres unmarked) [Oxyphenbutazone]
The z.score.t of the first is lower: −1.253 for the first, −0.8111 for the second.

Compared with C=CCOc1ccccc1OCC(O)CNC(C)C (centres unmarked) [Oxprenolol hydrochloride], CC(C)(CO)[C@@H](O)C(=O)NCCC(=O)O [Pantothenic acid calcium salt monohydrate] is higher in z.score.t: −1.046 for the first, −0.9817 for the second.

Work on O=C(O)/C=C/c1ccc(Cn2ccnc2)cc1 [Ozagrel hydrochloride] yielded a z.score.t of −1.148.
